# How the values were obtained:
# Type in all cases: cell-based
# [1] = biological target: T1, OR10A6 (Homo sapiens, UniProt Q8NH74); experiment: Luciferase reporter gene assay, OR10A6 expressed in HEK293 cells; conditions: response to hexanoic acid; test substance added together with hexanoic acid; HEK293
# T1 construct: expressed in transfected cells; host or cells: HEK293
# T1 sequence (Q8NH74 1-314): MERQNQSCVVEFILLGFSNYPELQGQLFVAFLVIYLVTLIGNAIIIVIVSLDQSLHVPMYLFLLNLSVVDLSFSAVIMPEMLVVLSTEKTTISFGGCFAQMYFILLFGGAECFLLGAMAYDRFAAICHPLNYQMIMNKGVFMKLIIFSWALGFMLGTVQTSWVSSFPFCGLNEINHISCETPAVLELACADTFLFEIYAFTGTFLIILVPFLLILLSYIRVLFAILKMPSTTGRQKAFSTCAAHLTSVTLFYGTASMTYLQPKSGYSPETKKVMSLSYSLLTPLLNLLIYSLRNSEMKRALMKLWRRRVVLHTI
# Procedure: (§1) Cloning of human olfactory receptors was performed based on the sequence information registered in GenBank, through PCR with human genomic DNA female (G1521: Promega) as a template. Each of the genes amplified through PCR was inserted into a pENTR vector (Invitrogen) according to an instruction manual. Then, the gene-inserted vector was digested with NotI and AscI, and the obtained fragments were inserted into NotI and AscI sites located downstream of the Flag-Rho tag sequence in the pME18S vector.
# (§2) Each of the 350 types of human olfactory receptors was expressed in HEK293 cells. A reaction solution having a composition shown in Table 2 was prepared on a clean bench, and left to stand for 15 minutes. The solution was dispensed to each well of a 96-well plate (BD). Subsequently, […] cells (100 μL, 3×10^5 cells/cm^2) were seeded in each well and cultured for 24 hours in an incubator at 37° C. and under 5% CO2 conditions.
# (§3) The olfactory receptor expressed in HEK293 cell was conjugated with cell-intrinsic Gas to activate adenylate cyclase, and thereby the level of intracellular cAMP was increased. For the measurement of the response to odor in this study, the luciferase reporter gene assay was used, in which an increase in the amount of intracellular cAMP was monitored by using the emission value originating from firefly luciferase gene (fluc2P-CRE-hygro) as an indicator. Furthermore, a gene product obtained by fusing renilla luciferase gene in the downstream of CMV promoter (hRluc-CMV) was simultaneously introduced, and this was used as an internal standard for correcting an error in the transgenesis efficiency or the number of cells. The medium was removed from the culture prepared in the above-described section 3) by using a Pipetman, and 75 μl of a solution containing an odor substance (1 mM hexanoic acid or 300 μM nonanoic acid) prepared in CD293 medium (Invitrogen) was added thereto. The cells were cultured for 4 hours in a CO2 incubator, and the luciferase gene was sufficiently expressed in the cells. For the measurement of luciferase activity, the measurement was carried out by using a Dual-Glo™ luciferase assay system (Promega) according to the operation manual of the product. A value calculated by dividing the emission value, derived from a firefly luciferase induced by the stimulation with an odor substance, by the emission value in cells that were not-stimulated with an odor substance, was designated as a fold increase, and used as an index of response intensity.
# (§4) OR2W1, OR10A6, OR51E1, OR51I2, and OR51L1 were respectively expressed in HEK293 cells by the same method as that used in Example 1, and a luciferase assay was carried out. In the luciferase assay, hexanoic acid was used as the odorous substance, and test substances were added together with hexanoic acid. The response of the olfactory receptors to hexanoic acid was measured, and a decrease in the receptor response to the addition of test substances was evaluated.
# (§5) The inhibition ratios of the receptor response to test substances were calculated as follows. The emission value (Y) obtained from the cells in which the same receptors were introduced but no odor stimulation was conducted, was subtracted from the emission value derived from firefly luciferase (X) induced by odor stimulation with hexanoic acid alone. Similarly, the emission value (Y) obtained from the cells in which no odor stimulation was conducted, was subtracted from the emission value (Z) caused by stimulation with a mixture of hexanoic acid and a test substance. By the following calculation formula, the inhibitory activity of the test substance to receptor response was calculated based on the increment of the emission value (X−Y) caused by stimulation of hexanoic acid alone. Multiple independent experiments were performed in duplicate, and the average of each experiment was obtained. Inhibition ratio (%)={1−(Z−Y)/(X−Y)}×100
# [2] = biological target: T2, OR51L1 (Homo sapiens, UniProt Q8NGJ5); experiment: Luciferase reporter gene assay, OR51L1 expressed in HEK293 cells; conditions: for Inhibition ratio of OR51L1 response: response to hexanoic acid, test substance added together with hexanoic acid, HEK293
# T2 construct: expressed in transfected cells; host or cells: HEK293
# T2 sequence (Q8NGJ5 1-315): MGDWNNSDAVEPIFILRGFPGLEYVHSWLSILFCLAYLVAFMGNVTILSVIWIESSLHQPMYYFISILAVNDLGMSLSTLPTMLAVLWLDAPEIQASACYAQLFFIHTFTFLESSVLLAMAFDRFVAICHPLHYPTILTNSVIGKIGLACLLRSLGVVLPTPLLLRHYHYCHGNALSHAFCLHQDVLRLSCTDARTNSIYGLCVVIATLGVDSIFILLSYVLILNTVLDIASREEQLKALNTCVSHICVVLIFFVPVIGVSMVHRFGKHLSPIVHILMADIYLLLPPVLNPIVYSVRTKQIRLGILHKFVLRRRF
# Procedure: as §1, §2, §3, §4
# as §5, with “(%)={1−(Z−Y)/(X−Y)}×100 […]” for “(%)={1−(Z−Y)/(X−Y)}×100”
# [3] = biological target: T3, OR51I2 (Homo sapiens, UniProt Q9H344); experiment: Luciferase reporter gene assay, OR51I2 expressed in HEK293 cells
# T3 construct: expressed in transfected cells; host or cells: HEK293
# T3 sequence (Q9H344 1-312): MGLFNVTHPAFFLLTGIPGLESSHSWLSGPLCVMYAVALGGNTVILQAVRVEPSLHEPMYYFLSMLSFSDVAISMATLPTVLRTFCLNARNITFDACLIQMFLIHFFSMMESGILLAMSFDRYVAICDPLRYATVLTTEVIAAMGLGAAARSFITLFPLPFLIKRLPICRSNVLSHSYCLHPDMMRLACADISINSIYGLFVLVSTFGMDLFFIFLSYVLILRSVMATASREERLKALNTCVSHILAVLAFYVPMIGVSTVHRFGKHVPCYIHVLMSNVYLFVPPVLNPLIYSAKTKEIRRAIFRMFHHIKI
# Procedure: as §1, §2, §3, §4
# as §5, with “(%)={1−(Z−Y)/(X−Y)}×100 […]” for “(%)={1−(Z−Y)/(X−Y)}×100”
# [4] = 1 mM hexanoic acid, test substance 3, 10, 30, 100, 300 μM (FIG. 4)
"Inhibition of OR51L1 response to hexanoic acid (in words) [2, 4]","Inhibition of OR51I2 response to hexanoic acid (in words) [3, 4]","Inhibition ratio of OR51I2 response ([3]; response to hexanoic acid, test substance added together with hexanoic acid, HEK293)",Compound,Inhibition ratio of OR10A6 response [1],Inhibition ratio of OR51L1 response [2]
,,,"2,4,6-trimethyl-3-cyclohexene-1-carboxyaldehyde, 3,5,6-trimethyl-3-cyclohexene-1-carboxyaldehyde [Isocyclocitral]",1 (Inhibition ratio: 50% or higher),1 (Inhibition ratio: 50% or higher)
in a concentration-dependent manner,in a concentration-dependent manner,1 (Inhibition ratio: 50% or higher),"CC(C)c1cccc(C(C)CC=O)c1 (stereo not drawn) [Florhydral, 3-(3-isopropylphenyl)-butyraldehyde]",,1 (Inhibition ratio: 50% or higher)
